Measurements as given in ChEMBL document CHEMBL4651402, “Screening of ~5500 FDA-approved drugs and clinical candidates for anti-SARS-CoV-2 activity” (2021).
pIC50: −log10 of the molar value.

Tested on: SARS-CoV-2
Experiment: microbe, parasite or virus in culture
Details: Severe acute respiratory syndrome coronavirus 2, Vero C1008, 48 h; for IC50: read-out: pIC50 (converted)

## NS(=O)(=O)c1ccc(N2CCCCS2(=O)=O)cc1
  pIC50: < 4.70
  IC50: > 20 µM

## CCCOc1cc(N)ccc1C(=O)OCCN(CC)CC [PROPOXYCAINE]
  pIC50: < 4.70
  IC50: > 20 µM

## CCOc1ccc(/N=C(\C)Nc2ccc(OCC)cc2)cc1 [PHENACAINE]
  pIC50: < 4.70
  IC50: > 20 µM

## CCOc1cc2cc(C(=O)O)sc2cc1OCC [TIBENELAST]
  pIC50: < 4.70
  IC50: > 20 µM

## O=C(/C=C/c1ccc(O)c(O)c1)O[C@H](Cc1ccc(O)c(O)c1)C(=O)O [ROSMARINIC ACID]
  pIC50: < 4.70
  IC50: > 20 µM

## NC(Cc1ccc(Cl)cc1)C(=O)O (racemic) [FENCLONINE]
  pIC50: < 4.70
  IC50: > 20 µM

## CC(=O)[C@H]1CC[C@H]2[C@@H]3CCC4=CC(=O)CC[C@]4(C)[C@H]3CC[C@]12C [PROGESTERONE]
  pIC50: < 4.70
  IC50: > 20 µM

## NC(=O)CC[C@H](NC(=O)Cc1ccccc1)C(=O)O
  pIC50: < 4.70
  IC50: > 20 µM

## O=C(O)C(=O)CBr [BROMOPYRUVATE]
  pIC50: < 4.70
  IC50: > 20 µM

## O=C(NCCN1CCN(c2ncccn2)CC1)C12CC3CC(CC(C3)C1)C2 [ADATANSERIN]
  pIC50: < 4.70
  IC50: > 20 µM

## Cc1cn([C@@H]2C[C@H](O)[C@@H](CO)O2)c(=O)[nH]c1=O
  pIC50: < 4.70
  IC50: > 20 µM

## C[C@H](Cc1cc2c(c(C(N)=O)c1)N(CCCO)CC2)NCCOc1ccccc1OCC(F)(F)F [SILODOSIN]
  pIC50: < 4.70
  IC50: > 20 µM

## NC1=NCC(CN2CCN(c3ccccc3)CC2)O1 (centres undefined)
  pIC50: < 4.70
  IC50: > 20 µM

## Oc1ccc(Cl)c2c1CCC2 [CHLORINDANOL]
  pIC50: < 4.70
  IC50: > 20 µM

## CC(=O)OC1CCC2(C)C(=CCC3C2CCC2(C)C(C(C)CCCC(C)C)CCC32)C1 (centres undefined)
  pIC50: < 4.70
  IC50: > 20 µM

## NCCCC(N)(C(=O)O)C(F)F (centres undefined) [EFLORNITHINE]
  pIC50: < 4.70
  IC50: > 20 µM

## CC(C)(C)c1ccc(C(=O)CCCN2CCC(OC(c3ccccc3)c3ccccc3)CC2)cc1 [EBASTINE]
  pIC50: < 4.70
  IC50: > 20 µM

## CC(C)(C)NCC(O)c1ccc(O)c(O)c1 (centres undefined) [COLTEROL]
  pIC50: < 4.70
  IC50: > 20 µM

## OB1OCc2cc(F)ccc21 [TAVABOROLE]
  pIC50: < 4.70
  IC50: > 20 µM

## Cc1cnc(NC(=O)Nc2cc(Br)c(C)cc2OC[C@@H]2CNCCO2)cn1 [RABUSERTIB]
  pIC50: < 4.70
  IC50: > 20 µM

## O=C1CC(c2ccc(O)c(O)c2)Oc2cc(O)cc(O)c21 (centres undefined)
  pIC50: < 4.70
  IC50: > 20 µM

## Oc1ccc(Cl)cc1Sc1cc(Cl)ccc1O [FENTICLOR]
  pIC50: < 4.70
  IC50: > 20 µM

## CC(=O)C1C(=O)C=C(C)OC1=O (centres undefined) [DEHYDROACETIC ACID]
  pIC50: < 4.70
  IC50: > 20 µM

## CCOC(=O)COc1ccc2c(C)c(CCN(CC)CC)c(=O)oc2c1 [CHROMONAR]
  pIC50: < 4.70
  IC50: > 20 µM

## CN(C)C1CC(c2ccccc2)c2ccccc21 (centres undefined)
  pIC50: < 4.70
  IC50: > 20 µM

## O=C(CCCN1CC=C(n2c(=O)[nH]c3ccccc32)CC1)c1ccc(F)cc1 [DROPERIDOL]
  pIC50: < 4.70
  IC50: > 20 µM

## CN[C@@H](C)[C@@H](O)c1ccccc1 [PSEUDOEPHEDRINE]
  pIC50: < 4.70
  IC50: > 20 µM

## NC(=O)C1(N2CCCCC2)CCN(CCCN2c3ccccc3CCc3ccc(Cl)cc32)CC1 [CLOCAPRAMINE]
  pIC50: < 4.70
  IC50: > 20 µM

## Clc1ccccc1C(c1ccccc1)(c1ccccc1)n1ccnc1 [CLOTRIMAZOLE]
  pIC50: < 4.70
  IC50: > 20 µM

## CCCCCC(=O)CCC1(C)C2Cc3ccc(O)cc3C1(C)CCN2C (centres undefined)
  pIC50: < 4.70
  IC50: > 20 µM

## Cc1cnc(C(=O)N[C@H]2CCCCC/C=C\[C@@H]3C[C@@]3(C(=O)NS(=O)(=O)C3CC3)NC(=O)[C@@H]3C[C@@H](Oc4nc5ccccc5c5ccccc45)CN3C2=O)cn1
  pIC50: < 4.70
  IC50: > 20 µM

## O=[N+]([O-])O[C@@H]1CO[C@H]2[C@@H]1OC[C@@H]2O [ISOSORBIDE MONONITRATE]
  pIC50: < 4.70
  IC50: > 20 µM

## c1ccc(CNc2ncnc3[nH]cnc23)cc1 [6-BENZYLAMINOPURINE]
  pIC50: < 4.70
  IC50: > 20 µM

## CCCCCCCCCC(=O)OCCN1CCN(CCCN2c3ccccc3Sc3ccc(C(F)(F)F)cc32)CC1 [FLUPHENAZINE DECANOATE]
  pIC50: < 4.70
  IC50: > 20 µM

## CC(C)[C@H](N)C(=O)OCCOCn1cnc2c(=O)nc(N)[nH]c21 [VALACYCLOVIR]
  pIC50: < 4.70
  IC50: > 20 µM

## CC[N+](C)(CC)CCC[n+]1c(-c2ccccc2)c2cc(N)ccc2c2ccc(N)cc21
  pIC50: < 4.70
  IC50: > 20 µM

## Cn1cnc2c1c(=O)[nH]c(=O)n2C [THEOBROMINE]
  pIC50: < 4.70
  IC50: > 20 µM

## Cc1cccc(C)c1CNc1cc(C(=O)NCCO)cn2c(C)c(C)nc12 [LINAPRAZAN]
  pIC50: < 4.70
  IC50: > 20 µM

## CN1CCN(CCCN2c3ccccc3Sc3ccc(Cl)cc32)CC1 [PROCHLORPERAZINE]
  pIC50: < 4.70
  IC50: > 20 µM

## O=C1CN=C(c2ccccc2)c2cc(Cl)ccc2N1CC(F)(F)F [HALAZEPAM]
  pIC50: < 4.70
  IC50: > 20 µM

## CC(=O)Oc1cc(C(F)(F)F)ccc1C(=O)O [TRIFLUSAL]
  pIC50: < 4.70
  IC50: > 20 µM

## CCOC(=O)[C@H](C)C[C@@H](Cc1ccc(-c2ccccc2)cc1)NC(=O)CCC(=O)O [SACUBITRIL]
  pIC50: < 4.70
  IC50: > 20 µM

## COc1ccccc1N1CCN(CCCC(O)c2ccc(F)cc2)CC1 (centres undefined) [ANISOPIROL]
  pIC50: < 4.70
  IC50: > 20 µM

## CSc1ccc2c(c1)C(N1CCN(C)CC1)Cc1ccccc1S2 (centres undefined) [METITEPINE]
  pIC50: < 4.70
  IC50: > 20 µM

## CC#CC(=O)N1CCC[C@@H]1c1nc(-c2ccc(C(=O)Nc3ccccn3)cc2)c2c(N)nccn12
  pIC50: < 4.70
  IC50: > 20 µM

## CC(C)c1nc(CN(C)C(=O)N[C@H](C(=O)N[C@@H](Cc2ccccc2)C[C@H](O)[C@H](Cc2ccccc2)NC(=O)OCc2cncs2)C(C)C)cs1 [RITONAVIR]
  pIC50: < 4.30
  IC50: > 50.1 µM

## CNC(=O)NC(O)C(Cl)(Cl)Cl (centres undefined) [MECLORALUREA]
  pIC50: < 4.70
  IC50: > 20 µM

## CCC(=O)NS(=O)(=O)c1ccc(-c2c(-c3ccccc3)noc2C)cc1 [PARECOXIB]
  pIC50: < 4.70
  IC50: > 20 µM

## Nc1ccn([C@H]2CC[C@@H](CO)O2)c(=O)n1 [ZALCITABINE]
  pIC50: < 4.70
  IC50: > 20 µM

## Cc1nccnc1N1CCCCC1 [MODALINE]
  pIC50: < 4.70
  IC50: > 20 µM

## COc1ccc(C2CNC(=O)C2)cc1OC1CCCC1 (centres undefined) [ROLIPRAM]
  pIC50: < 4.70
  IC50: > 20 µM

## COc1cc(C(=O)O)ccc1NC(=O)[C@@H]1N[C@@H](CC(C)(C)C)[C@](C#N)(c2ccc(Cl)cc2F)[C@H]1c1cccc(Cl)c1F [IDASANUTLIN]
  pIC50: < 4.70
  IC50: > 20 µM

## CN(C(=O)CCCOc1ccc2[nH]c(=O)ccc2c1)C1CCCCC1 [CILOSTAMIDE]
  pIC50: < 4.70
  IC50: > 20 µM

## CCOC(=O)CN1CCN(C(=O)C=Cc2cc(OC)c(OC)c(OC)c2)CC1
  pIC50: < 4.70
  IC50: > 20 µM

## CC(=O)OC(C)C[N+](C)(C)C (centres undefined) [METHACHOLINE]
  pIC50: < 4.70
  IC50: > 20 µM

## O=C(CC(c1ccccc1)c1ccccc1)N1CCN(C(c2ccccc2)c2ccccc2)CC1 [Z160]
  pIC50: < 4.70
  IC50: > 20 µM

## c1cc2c(cc1[C@H]1OC[C@H]3[C@@H]1CO[C@@H]3c1ccc3c(c1)OCO3)OCO2 [SESAMIN]
  pIC50: < 4.70
  IC50: > 20 µM

## CC(=O)CCCCn1c(=O)c2c(ncn2C)n(C)c1=O [PENTOXIFYLLINE]
  pIC50: < 4.70
  IC50: > 20 µM

## CN1C(=O)CCS(=O)(=O)C1c1ccc(Cl)cc1 (centres undefined) [CHLORMEZANONE]
  pIC50: < 4.70
  IC50: > 20 µM

## NCc1ccccc1CC(=O)N[C@@H]1C(=O)N2C(C(=O)O)=C(CSc3nnnn3CC(=O)O)CS[C@H]12 [CEFORANIDE]
  pIC50: < 4.70
  IC50: > 20 µM

## COc1ccc(S(=O)(=O)N2C(=O)[C@@](c3ccccc3OC)(N3C[C@H](O)C[C@H]3C(=O)N(C)C)c3cc(Cl)ccc32)c(OC)c1
  pIC50: < 4.70
  IC50: > 20 µM

## CC1CC2(C)C3CCC4(C)C(O)CCC4C3CC[C@H]2CC1=O (some centres undefined)
  pIC50: < 4.70
  IC50: > 20 µM

## N[C@H](Cn1ccc(=O)c(O)c1)C(=O)O
  pIC50: < 4.70
  IC50: > 20 µM

## c1ccc2[nH]ncc2c1 [INDAZOLE]
  pIC50: < 4.70
  IC50: > 20 µM

## NC(=O)c1cc([N+](=O)[O-])cc([N+](=O)[O-])c1 [NITROMIDE]
  pIC50: < 4.70
  IC50: > 20 µM

## CCCCN(CCCC)C(C(N)=O)c1ccc(OC)cc1 (centres undefined) [AMBUCETAMIDE]
  pIC50: < 4.70
  IC50: > 20 µM

## CCCOc1ccccc1-c1nc2[nH]nnc2c(=O)[nH]1 [ZAPRINAST]
  pIC50: < 4.70
  IC50: > 20 µM

## CC(=O)O[C@]1(C(C)=O)CC[C@H]2[C@@H]3C=C(Cl)C4=CC(=O)CC[C@]4(C)[C@H]3CC[C@@]21C [CHLORMADINONE ACETATE]
  pIC50: < 4.70
  IC50: > 20 µM

## Cc1ncc([N+](=O)[O-])n1CC(C)O (centres undefined) [SECNIDAZOLE]
  pIC50: < 4.70
  IC50: > 20 µM

## CC[C@@H]1CN(C(=O)NCC(F)(F)F)C[C@@H]1c1cnc2cnc3[nH]ccc3n12 [UPADACITINIB]
  pIC50: < 4.70
  IC50: > 20 µM

## COC(=O)Nc1c(N)nc(-c2nn(Cc3ccccc3F)c3ncccc23)nc1N
  pIC50: < 4.70
  IC50: > 20 µM

## Cc1c(-c2cnccn2)ssc1=S [OLTIPRAZ]
  pIC50: < 4.70
  IC50: > 20 µM

## NC1=NCC2c3ccccc3Cc3ccccc3N12 (centres undefined) [EPINASTINE]
  pIC50: < 4.70
  IC50: > 20 µM

## COc1cc2c(Oc3ccc4[nH]c(C)cc4c3F)ncnc2cc1OCCCN1CCCC1 [CEDIRANIB]
  pIC50: < 4.70
  IC50: > 20 µM

## CC(CN1CCOCC1)C(C(=O)N1CCCC1)(c1ccccc1)c1ccccc1 (racemic) [RACEMORAMIDE]
  pIC50: < 4.70
  IC50: > 20 µM

## CNC(=O)c1c(-c2ccc(F)cc2)oc2cc(N(CCO)S(C)(=O)=O)c(C3CC3)cc12 [NESBUVIR]
  pIC50: < 4.70
  IC50: > 20 µM

## CC(=O)Oc1ccc(-c2ccc(F)cc2)cc1C(=O)O [FLUFENISAL]
  pIC50: < 4.70
  IC50: > 20 µM
